In general, pIC50 refers to the negative decadic logarithm of the IC50, by convention in mol/L.

pIC50: −log10 of the molar value.

What all share (format): biochemical
In assay [1] the target is T1, PI3Kβ (Homo sapiens, UniProt P42338).
T1 construct: made in house
Kind of assay: TR-FRET enzymatic activity assay, PI3Kβ. As to conditions: for pIC50: recombinant heterodimeric PI3Kβ 25-50 pM, 2× Km ATP, 30 minutes at 25°C; for PI3Kγ/PI3Kβ ratio: ratio of IC50 values. The method in brief: (§1)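 Enzymatic activity against the PI3K isoforms was measured using a time-resolved fluorescence resonance energy transfer (TR-FRET) assay.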
For orientation: In TR-FRET formats the signal depends on donor and acceptor labels being close together.

Assay [2] addresses T2, PI3Kδ (Homo sapiens, UniProt O00329).
T2 construct: made in house
Kind of assay: TR-FRET enzymatic activity assay, PI3Kδ. To be noted: recombinant heterodimeric PI3Kδ 25-50 pM, 2× Km ATP, 30 minutes at 25°C. Put shortly:
as §1

Assay [3] concerns the target T3, PI3Kγ (Homo sapiens, UniProt P48736).
T3 construct: made in house
Kind of assay: TR-FRET enzymatic activity assay, PI3Kγ. To be noted: recombinant heterodimeric PI3Kγ 2 nM, 2× Km ATP, 30 minutes at 25°C. Put shortly:
as §1

T3 sequence (P48736 whole entry): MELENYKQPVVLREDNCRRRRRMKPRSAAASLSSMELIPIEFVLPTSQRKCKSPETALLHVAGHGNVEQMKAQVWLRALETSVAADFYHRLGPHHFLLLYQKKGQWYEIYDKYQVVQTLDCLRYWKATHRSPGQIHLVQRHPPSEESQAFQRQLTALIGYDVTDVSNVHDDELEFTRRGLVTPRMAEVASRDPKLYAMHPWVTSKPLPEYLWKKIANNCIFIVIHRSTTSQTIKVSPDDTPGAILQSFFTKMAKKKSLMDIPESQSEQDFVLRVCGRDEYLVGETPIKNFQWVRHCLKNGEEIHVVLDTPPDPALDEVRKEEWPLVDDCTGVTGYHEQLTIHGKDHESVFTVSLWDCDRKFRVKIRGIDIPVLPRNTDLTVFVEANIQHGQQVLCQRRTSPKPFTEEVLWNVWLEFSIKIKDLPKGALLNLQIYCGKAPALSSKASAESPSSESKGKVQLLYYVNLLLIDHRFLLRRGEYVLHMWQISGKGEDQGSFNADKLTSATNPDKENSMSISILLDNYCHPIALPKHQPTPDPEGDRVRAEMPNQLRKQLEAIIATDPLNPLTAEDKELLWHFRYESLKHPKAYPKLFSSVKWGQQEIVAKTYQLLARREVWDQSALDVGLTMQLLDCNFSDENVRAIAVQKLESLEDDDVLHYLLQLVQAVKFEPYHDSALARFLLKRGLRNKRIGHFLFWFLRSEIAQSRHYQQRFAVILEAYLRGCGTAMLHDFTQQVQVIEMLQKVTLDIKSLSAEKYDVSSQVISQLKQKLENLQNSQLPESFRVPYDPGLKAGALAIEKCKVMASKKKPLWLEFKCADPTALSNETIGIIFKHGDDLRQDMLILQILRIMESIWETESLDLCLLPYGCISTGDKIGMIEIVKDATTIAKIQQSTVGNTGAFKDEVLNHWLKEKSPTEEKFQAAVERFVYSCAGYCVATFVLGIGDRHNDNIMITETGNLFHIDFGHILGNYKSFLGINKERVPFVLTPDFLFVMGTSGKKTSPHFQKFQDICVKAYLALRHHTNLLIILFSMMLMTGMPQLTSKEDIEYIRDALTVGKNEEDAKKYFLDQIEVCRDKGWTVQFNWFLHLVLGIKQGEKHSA
T3 sequence (Q8WYR1 whole entry partner): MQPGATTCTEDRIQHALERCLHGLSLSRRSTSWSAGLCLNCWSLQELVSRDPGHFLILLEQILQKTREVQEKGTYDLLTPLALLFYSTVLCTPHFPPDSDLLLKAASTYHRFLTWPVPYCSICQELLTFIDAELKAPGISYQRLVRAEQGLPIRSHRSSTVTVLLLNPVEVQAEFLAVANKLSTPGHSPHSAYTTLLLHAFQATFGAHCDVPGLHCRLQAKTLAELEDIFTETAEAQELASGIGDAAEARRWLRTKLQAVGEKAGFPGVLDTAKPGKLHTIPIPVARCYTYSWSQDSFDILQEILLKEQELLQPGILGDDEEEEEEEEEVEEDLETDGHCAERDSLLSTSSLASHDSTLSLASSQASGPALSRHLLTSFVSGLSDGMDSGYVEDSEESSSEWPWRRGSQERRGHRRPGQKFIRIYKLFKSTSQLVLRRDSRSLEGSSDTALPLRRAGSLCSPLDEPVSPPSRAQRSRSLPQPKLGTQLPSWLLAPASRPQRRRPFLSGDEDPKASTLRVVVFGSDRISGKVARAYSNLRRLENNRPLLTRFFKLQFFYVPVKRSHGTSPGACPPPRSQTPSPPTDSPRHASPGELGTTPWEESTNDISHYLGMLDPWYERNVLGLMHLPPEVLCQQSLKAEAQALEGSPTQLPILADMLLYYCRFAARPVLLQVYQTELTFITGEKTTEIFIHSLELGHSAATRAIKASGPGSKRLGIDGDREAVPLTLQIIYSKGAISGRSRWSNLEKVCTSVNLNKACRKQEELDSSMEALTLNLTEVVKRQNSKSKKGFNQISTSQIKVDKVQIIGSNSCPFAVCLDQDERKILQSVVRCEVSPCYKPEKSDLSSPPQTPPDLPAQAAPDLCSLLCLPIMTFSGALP
T2 sequence (O00329 whole entry): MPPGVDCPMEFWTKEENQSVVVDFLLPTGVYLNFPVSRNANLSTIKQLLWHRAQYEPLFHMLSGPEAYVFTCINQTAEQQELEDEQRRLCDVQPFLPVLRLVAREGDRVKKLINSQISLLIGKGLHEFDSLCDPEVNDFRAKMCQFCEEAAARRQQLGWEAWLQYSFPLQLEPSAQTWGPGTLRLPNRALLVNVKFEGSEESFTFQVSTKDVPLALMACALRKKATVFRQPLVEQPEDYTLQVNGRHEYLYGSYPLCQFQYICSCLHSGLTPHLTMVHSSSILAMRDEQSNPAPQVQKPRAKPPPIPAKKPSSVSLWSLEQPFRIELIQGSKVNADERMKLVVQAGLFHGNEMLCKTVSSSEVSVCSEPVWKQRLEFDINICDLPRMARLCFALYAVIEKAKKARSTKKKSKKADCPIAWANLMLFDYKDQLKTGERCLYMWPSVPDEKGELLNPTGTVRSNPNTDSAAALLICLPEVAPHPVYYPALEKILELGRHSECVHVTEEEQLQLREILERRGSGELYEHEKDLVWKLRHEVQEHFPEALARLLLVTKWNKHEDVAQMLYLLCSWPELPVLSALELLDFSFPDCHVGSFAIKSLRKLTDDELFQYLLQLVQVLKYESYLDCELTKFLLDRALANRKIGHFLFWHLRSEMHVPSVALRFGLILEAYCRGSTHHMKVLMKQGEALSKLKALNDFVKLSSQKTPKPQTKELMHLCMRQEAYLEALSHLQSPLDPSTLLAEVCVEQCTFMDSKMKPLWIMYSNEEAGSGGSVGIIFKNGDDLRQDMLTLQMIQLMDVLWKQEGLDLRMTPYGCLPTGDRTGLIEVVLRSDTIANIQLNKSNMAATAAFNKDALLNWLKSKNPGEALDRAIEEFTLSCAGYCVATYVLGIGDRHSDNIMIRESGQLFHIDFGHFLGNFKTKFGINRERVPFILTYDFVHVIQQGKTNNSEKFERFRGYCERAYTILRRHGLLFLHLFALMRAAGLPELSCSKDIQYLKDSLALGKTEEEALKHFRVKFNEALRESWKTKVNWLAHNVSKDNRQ
T2 sequence (P27986 whole entry partner): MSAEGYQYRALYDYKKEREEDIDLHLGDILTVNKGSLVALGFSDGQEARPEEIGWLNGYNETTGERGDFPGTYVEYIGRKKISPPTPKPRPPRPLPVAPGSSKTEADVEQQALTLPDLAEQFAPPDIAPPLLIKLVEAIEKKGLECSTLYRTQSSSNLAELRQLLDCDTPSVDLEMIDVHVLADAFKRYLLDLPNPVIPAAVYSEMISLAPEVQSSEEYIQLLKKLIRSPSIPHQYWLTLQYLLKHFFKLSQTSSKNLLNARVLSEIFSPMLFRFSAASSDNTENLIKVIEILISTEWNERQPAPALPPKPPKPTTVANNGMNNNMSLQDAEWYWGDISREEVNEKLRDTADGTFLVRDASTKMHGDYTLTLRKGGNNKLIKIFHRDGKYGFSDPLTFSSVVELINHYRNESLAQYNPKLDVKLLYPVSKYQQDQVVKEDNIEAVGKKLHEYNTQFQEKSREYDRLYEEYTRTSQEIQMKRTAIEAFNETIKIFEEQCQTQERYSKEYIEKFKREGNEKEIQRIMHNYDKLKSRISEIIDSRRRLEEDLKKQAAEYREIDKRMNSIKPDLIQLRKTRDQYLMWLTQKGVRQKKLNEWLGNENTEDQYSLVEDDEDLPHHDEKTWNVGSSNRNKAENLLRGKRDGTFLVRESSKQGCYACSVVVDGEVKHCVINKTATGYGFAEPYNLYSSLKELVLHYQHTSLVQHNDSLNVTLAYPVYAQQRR
T1 sequence (P42338 whole entry): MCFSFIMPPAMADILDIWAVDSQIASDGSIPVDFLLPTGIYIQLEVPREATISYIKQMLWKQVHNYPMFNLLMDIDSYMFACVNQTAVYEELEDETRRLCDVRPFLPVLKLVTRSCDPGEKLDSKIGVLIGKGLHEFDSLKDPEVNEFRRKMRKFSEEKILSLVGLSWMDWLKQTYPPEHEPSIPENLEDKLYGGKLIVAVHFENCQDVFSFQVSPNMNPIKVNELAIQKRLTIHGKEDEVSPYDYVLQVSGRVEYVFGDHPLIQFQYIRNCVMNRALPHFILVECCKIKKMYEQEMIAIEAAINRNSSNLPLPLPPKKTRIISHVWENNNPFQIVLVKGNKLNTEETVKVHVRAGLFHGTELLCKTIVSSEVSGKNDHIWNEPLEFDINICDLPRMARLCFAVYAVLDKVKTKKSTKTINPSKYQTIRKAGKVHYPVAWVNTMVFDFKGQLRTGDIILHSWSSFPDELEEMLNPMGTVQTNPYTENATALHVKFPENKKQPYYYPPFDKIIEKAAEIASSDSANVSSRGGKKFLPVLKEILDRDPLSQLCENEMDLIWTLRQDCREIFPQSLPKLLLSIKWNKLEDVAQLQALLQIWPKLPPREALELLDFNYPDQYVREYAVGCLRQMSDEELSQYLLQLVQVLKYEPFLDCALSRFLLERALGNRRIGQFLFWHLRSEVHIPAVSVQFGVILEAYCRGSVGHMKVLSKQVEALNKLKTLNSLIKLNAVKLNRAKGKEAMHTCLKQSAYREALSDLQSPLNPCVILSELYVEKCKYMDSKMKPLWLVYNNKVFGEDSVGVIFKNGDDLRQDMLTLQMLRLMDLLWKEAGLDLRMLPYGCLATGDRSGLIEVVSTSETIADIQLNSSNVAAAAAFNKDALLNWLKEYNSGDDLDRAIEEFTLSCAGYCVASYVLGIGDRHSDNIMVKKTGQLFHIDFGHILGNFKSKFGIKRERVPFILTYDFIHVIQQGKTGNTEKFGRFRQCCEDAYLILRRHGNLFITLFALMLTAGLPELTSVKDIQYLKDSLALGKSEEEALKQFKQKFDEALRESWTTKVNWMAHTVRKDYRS
T1 sequence (P27986 whole entry partner): as the sequence (P27986 whole entry partner) above

With `C[C@H](Nc1nc(N)nc(N)c1Cl)c1nc2c(F)ccc(Cl)c2c(=O)n1N1CCN(Cc2ccccc2)CC1` [Compound 117, (S)-3-(4-benzylpiperazin-1-yl)-5-chloro-2-(1-((2,6-diamino-5-chloropyrimidin-4-yl)amino)ethyl)-8-fluoroquinazolin-4(3H)-one], the pIC50 was 6.24 in assay [1], 6.66 in assay [2] and below 5.00 in assay [3].

With `Cc1nc(N)nc(N[C@@H](C)c2nc3c(F)ccc(Cl)c3c(=O)n2N2CCN(Cc3ccccc3)CC2)c1C#N` [Compound 118, (S)-2-amino-4-((1-(3-(4-benzylpiperazin-1-yl)-5-chloro-8-fluoro-4-oxo-3,4-dihydroquinazolin-2-yl)ethyl)amino)-6-methylpyrimidine-5-carbonitrile], the values for the pIC50 in assay [1], in assay [2] and in assay [3] were 7.85, 7.77 and 6.19, respectively.

With `C[C@H](Nc1nc(N)nc(N)c1C#N)c1nc2cccc(Cl)c2c(=O)n1C1CCN(CC(F)(F)F)C1` (stereo partly drawn) [Compound 119, 2,4-diamino-6-(((1S)-1-(5-chloro-4-oxo-3-(1-(2,2,2-trifluoroethyl)pyrrolidin-3-yl)-3,4-dihydroquinazolin-2-yl)ethyl)amino)pyrimidine-5-carbonitrile], the pIC50 in assay [1] is 6.44; in assay [2] it was 7.85; in assay [3], 5.54.

Regarding `C[C@H](Nc1ncnc2[nH]cnc12)c1nc2cccc(Cl)c2c(=O)n1C1CCN(C)CC1` [Compound 120, (S)-2-(1-((9H-purin-6-yl)amino)ethyl)-5-chloro-3-(1-methylpiperidin-4-yl)quinazolin-4(3H)-one], the pIC50 is 5.92 in assay [1], 7.85 in assay [2] and below 5.00 in assay [3].

With `N#Cc1c(N)nc(N)nc1N[C@H](c1nc2cccc(Cl)c2c(=O)n1N1CCOCC1)C1CC1` [Compound 121, (S)-2,4-diamino-6-(((5-chloro-3-morpholino-4-oxo-3,4-dihydroquinazolin-2-yl)(cyclopropyl)methyl)amino)pyrimidine-5-carbonitrile], the pIC50 in assay [1] is 6.87; in assay [2], 8.70; in assay [3] it was 6.72.

For `Nc1nc(N)c(Cl)c(N[C@H](c2nc3cccc(Cl)c3c(=O)n2N2CCOCC2)C2CC2)n1` [Compound 122, (S)-5-chloro-2-(cyclopropyl((2,6-diamino-5-chloropyrimidin-4-yl)amino)methyl)-3-morpholinoquinazolin-4(3H)-one], the pIC50 in assay [1] is 5.74; in assay [2], 7.72; in assay [3] it was 5.66.

Regarding `C[C@H](Nc1nc(N)nc(N)c1C#N)c1nc2cccc(Cl)c2c(=O)n1N1CCN(C)CC1` [Compound 125, (S)-2,4-diamino-6-((1-(5-chloro-3-(4-methylpiperazin-1-yl)-4-oxo-3,4-dihydroquinazolin-2-yl)ethyl)amino)pyrimidine-5-carbonitrile], the pIC50 in assay [1] is 8.30; in assay [2], 8.22; in assay [3], 6.46.

As to `C[C@H](Nc1nc(N)nc(N)c1C#N)c1nc2c(Cl)cc(F)cc2c(=O)n1N1CCNCC1` [Compound 126, (S)-2,4-diamino-6-((1-(8-chloro-6-fluoro-4-oxo-3-(piperazin-1-yl)-3,4-dihydroquinazolin-2-yl)ethyl)amino)pyrimidine-5-carbonitrile], the values for the negative-log IC50 (pIC50) in assay [1], in assay [2] and in assay [3] were 8.30, 8.40 and 5.31, respectively.

On to `N#Cc1c(N)nc(N)nc1N[C@H](c1nc2c(F)ccc(F)c2c(=O)n1N1CCNCC1)C1CC1` [Compound 127, (S)-2,4-diamino-6-((cyclopropyl(5,8-difluoro-4-oxo-3-(piperazin-1-yl)-3,4-dihydroquinazolin-2-yl)methyl)amino)pyrimidine-5-carbonitrile], for which the pIC50 is 7.55 in assay [1], 7.89 in assay [2] and below 5.00 in assay [3].

Regarding `C[C@H](Nc1nc(N)nc(Cl)c1C#N)c1nc2cccc(Cl)c2c(=O)n1C1CCNCC1` [Compound 128, (S)-2-Amino-4-chloro-6-((1-(5-chloro-4-oxo-3-(piperidin-4-yl)-3,4-dihydroquinazolin-2-yl)ethyl)amino)pyrimidine-5-carbonitrile], the pIC50 in assay [1] was 8.00; in assay [2], 7.85; in assay [3] it was below 5.00.

With `C[C@H](Nc1nc(N)nc(N)c1C#N)c1nc2cccc(Cl)c2c(=O)n1N1CCC(N)CC1` [Compound 129, (S)-2,4-diamino-6-((1-(3-(4-aminopiperidin-1-yl)-5-chloro-4-oxo-3,4-dihydroquinazolin-2-yl)ethyl)amino)pyrimidine-5-carbonitrile], the pIC50 in assay [1] was 6.92; in assay [2], 8.40; in assay [3], 5.30.

For `C[C@H](Nc1ncnc(N)c1C#N)c1nc2cccc(Cl)c2c(=O)n1N1CCC(N)C1` (stereo partly drawn) [Compound 130, 4-amino-6-(((1S)-1-(3-(3-aminopyrrolidin-1-yl)-5-chloro-4-oxo-3,4-dihydroquinazolin-2-yl)ethyl)amino)pyrimidine-5-carbonitrile], the results for the negative-log IC50 (pIC50) in assay [1], in assay [2] and in assay [3] were 7.21, 9.00 and below 5.00, respectively.

Regarding `C[C@H](Nc1ncnc(N)c1C#N)c1nc2cccc(Cl)c2c(=O)n1N1CCC(N)CC1` [Compound 131, (S)-4-amino-6-((1-(3-(4-aminopiperidin-1-yl)-5-chloro-4-oxo-3,4-dihydroquinazolin-2-yl)ethyl)amino)pyrimidine-5-carbonitrile], the negative-log IC50 (pIC50) was 6.35 in assay [1], 8.22 in assay [2] and below 5.00 in assay [3].

`C[C@H](Nc1ncnc(N)c1C#Cc1ccc(F)cn1)c1nc2cccc(Cl)c2c(=O)n1C1CNC1` [Compound 132, (S)-2-(1-((6-amino-5-((5-fluoropyridin-2-yl)ethynyl)pyrimidin-4-yl)amino)ethyl)-3-(azetidin-3-yl)-5-chloroquinazolin-4(3H)-one]: the results for the pIC50 in assay [1], in assay [2] and in assay [3] were 6.00, 6.60 and below 5.00, respectively.

For `O=c1c2c(Cl)cccc2nc([C@@H]2CCCN2c2ncnn3ccnc23)n1N1CCNCC1` [Compound 133, (S)-5-chloro-2-(1-(imidazo[2,1-f][1,2,4]triazin-4-yl)pyrrolidin-2-yl)-3-(piperazin-1-yl)quinazolin-4(3H)-one], the results for the pIC50 in assay [1], in assay [2] and in assay [3] were 6.05, 7.12 and below 5.00, respectively.

In the case of `C[C@H](Nc1ncnc(N)c1C#N)c1nc2cccc(Cl)c2c(=O)n1C1CCN(C2CCN(C)CC2)CC1` [Compound 134, (S)-4-amino-6-((1-(5-chloro-3-(1'-methyl-[1,4'-bipiperidin]-4-yl)-4-oxo-3,4-dihydroquinazolin-2-yl)ethyl)amino)pyrimidine-5-carbonitrile], the results for the negative-log IC50 (pIC50) in assay [1], in assay [2] and in assay [3] were 5.66, 7.46 and below 5.00, respectively.

As for `CCN1CCC(n2c([C@H](C)Nc3ncnc4[nH]cnc34)nc3cccc(Cl)c3c2=O)C1` (stereo partly drawn) [Compound 135, 2-((S)-1-((9H-purin-6-yl)amino)ethyl)-5-chloro-3-(1-ethylpyrrolidin-3-yl)quinazolin-4(3H)-one], the negative logarithm of the IC50 (pIC50) in assay [1] is 5.33; in assay [2], 7.15; in assay [3], below 5.00.

Regarding `C[C@H](Nc1nc(N)nc(N)c1C#N)c1nc2cccc(Cl)c2c(=O)n1[C@H]1CCOC1` [Compound 136, 2,4-diamino-6-(((S)-1-(5-chloro-4-oxo-3-((S)-tetrahydrofuran-3-yl)-3,4-dihydroquinazolin-2-yl)ethyl)amino)pyrimidine-5-carbonitrile], the pIC50 was 6.72 in assay [1], 8.70 in assay [2] and 6.59 in assay [3].

For the compound `C[C@H](Nc1nc(N)nc(N)c1C#N)c1nc2cccc(Cl)c2c(=O)n1[C@@H]1CCOC1` [Compound 137, 2,4-diamino-6-(((S)-1-(5-chloro-4-oxo-3-((R)-tetrahydrofuran-3-yl)-3,4-dihydroquinazolin-2-yl)ethyl)amino)pyrimidine-5-carbonitrile], the pIC50 is 7.33 in assay [1], 8.30 in assay [2] and 6.64 in assay [3].

Take `N#Cc1c(N)nc(N)nc1N[C@H](c1nc2c(Cl)ccc(Cl)c2c(=O)n1C1CCC1)C1CC1` [Compound 138, (S)-2,4-diamino-6-((cyclopropyl(5,8-dichloro-3-cyclobutyl-4-oxo-3,4-dihydroquinazolin-2-yl)methyl)amino)pyrimidine-5-carbonitrile]: the values for the pIC50 in assay [1], in assay [2] and in assay [3] were 7.24, 9.00 and 6.28, respectively.

As for `C[C@H](Nc1nc(N)nc(N)c1C#N)c1nc2cccc(Cl)c2c(=O)n1-c1ccccc1` [Compound X, (S)-2,4-diamino-6-((1-(5-chloro-4-oxo-3-phenyl-3,4-dihydroquinazolin-2-yl)ethyl)amino)pyrimidine-5-carbonitrile, reference compound], the PI3Kγ/PI3Kβ ratio is given as 0.6 in assay [1] and “less than 1 fold” in assay [1] (as stated in b147). Moreover, the pIC50 in assay [1] was 7.96; in assay [2], 9.70; in assay [3], 8.15.

The values are drawn from patent publication EP3154958B1, “PHOSPHATIDYLINOSITOL 3-KINASE INHIBITORS” (Gilead Sciences, Inc., priority 2014, dated 2015).
